From patent US8987201B2, “Black bear parathyroid hormone and methods of using black bear parathyroid hormone” (Michigan Technological University, priority 2009, dated 2015)
“Also recorded” adds a separate entry of the source. Marks after values point to notes of the source that are not given here.

Assays:
MC-3T3 cells = assay: Gene expression by real-time PCR in MC-3T3 cells (Example 11); format: cell-based; conditions: 100 nM
Procedure: MC-3T3 cells were incubated in vehicle or 100 nM synthetic bear or human PTH 1-34 for 3 or 6 hours (n=2 or 4). Total RNA was isolated, and cDNA was generated with reverse transcription. Primers for the bone matrix proteins type I collagen and osteocalcin, the pro-apoptotic protein Bax, the anti-apoptotic protein Bcl-2, and the housekeeping genes Gapdh, β-actin, and cyclophillin were designed using PrimerQuest software (Integrated DNA Technologies, Coralville, Iowa). Real-time PCR was performed using the Mx3000P real-time PCR system (Stratagene, LaJolla, Calif.). All samples were measured in duplicate. Gene expression was determined using the relative standard curve method normalized to the geometric mean of the three housekeeping genes (Gapdh, β-actin, and cyclophillin). Apoptosis-related genes were analyzed as the expression ratio of Bax/Bcl-2, since a decrease in this ratio is associated with decreased apoptosis in vitro.

Male Swiss-Webster mice [1] = assay: Trabecular bone structure and mineralization in the proximal tibia (micro-computed tomography); format: in vivo, mouse; conditions: PTH 1-34 study: 11 wk old mice, 8 weeks, proximal tibia, normalized by body mass
From the text: (§1) All handling procedures and experiments were approved by the Michigan Technological University Institutional Animal Care and Use Committees. Male Swiss-Webster mice were obtained from a commercial breeder (Harlan, Indianapolis, Ind.). All animals were maintained on a 12-h light/12-h dark cycle, and were permitted free access to water and food containing 0.95% calcium (Purina Rodent Diet #5001).
(§2) In the first experiment, 11 wk old mice received daily (5 days/week) subcutaneous injections of 2.5 nmol/kg PTH 1-34 (hPTH 1-34 or bbPTH 1-34) or acidic saline vehicle (0.15 M NaCl+0.001 N HCl) for 8 weeks (n=10 mice/group). In the second experiment, 12 wk old mice received daily (5 days/week) subcutaneous injections of 2.5 nmol/kg PTH 1-84 (hPTH 1-84 or bbPTH 1-84) or acidic saline vehicle for 8 weeks (n=10 mice/group). All PTH- and vehicle-treated animals received subcutaneous injections of calcein at a dosage of 10 mg/kg on days 12 and 3 before death to label mineralizing bone surfaces. Twenty-four hours following the last treatment injection, mice were sacrificed by carbon dioxide asphyxiation. Right femurs were fixed in 10% neutral buffered formalin. Left femurs were wrapped in 0.15M saline soaked gauze and stored at −20 deg C. Left tibias were stored in 70% ethanol at 4 deg C.
Trabecular bone architecture and mineralization were evaluated in the left proximal tibial metaphysis (0.7 mm distal to the growth plate) using micro-computed tomography. Tibias from experiment 1 were scanned on a μCT35 scanner (Scanco Medical AG, Basserdorf, Switzerland) at 3.5 μm (high) resolution. Tibias from experiment 2 were scanned on a μCT40 scanner (Scanco Medical AG, Basserdorf, Switzerland) at 7 μm (high) resolution. Bones were scanned in 70% ethanol. Trabecular bone volume fraction (BV/TV, %), trabecular number (Tb.N, mm^−1), trabecular thickness (Tb.Th, m), trabecular separation (Tb.Sp, m), trabecular apparent mineral density (App.Mn.Dn, mgHA/cm^3) and trabecular tissue mineral density (Mat.Mn.Dn, mgHA/cm^3) were computed using the manufacturer's software.
(§3) All bone geometrical, architectural, and mineral properties were normalized by body mass to account for potential variation in animal size (31-33). Trabecular bone properties quantified by micro-computed tomography were compared by ANOVA between vehicle, bear, and human PTH-treated mice within each study (PTH 1-34 or PTH 1-84). The microCT parameters were not directly compared between the PTH 1-34 and PTH 1-84 studies because analyses were conducted on different microCT machines. For all other bone properties, all six experimental groups (from both the PTH 1-34 and PTH 1-84 studies) were compared with ANOVA and Fisher's PLSD. A significance of p<0.05 was used for all comparisons.

Male Swiss-Webster mice [2] = assay: Cortical bone mineral content (ash fraction) and geometrical properties of the femur; format: in vivo, mouse; conditions: femoral midshaft, 2.5 nmol/kg s.c., 8 weeks, normalized by body mass, SD in parentheses
From the text: as §1, §2
(§4) Following the bending test, the left femoral diaphyses were ashed in a furnace to determine mineral content (ash fraction). Right femoral diaphyses were embedded in methyl methacrylate and sectioned with a diamond saw to expose the midshaft cross-section. Images of the midshaft cross-sections were captured using a digital camera (Spot Insight QE, Diagnostic Instruments Inc., Sterling Heights, Mich.), and Scion Image analysis software (Scion Corporation, Frederick, Md.) was used to calculate the periosteal area (Ps.Ar), cortical area (Ct.Ar), and endosteal area (Es.Ar) for each sample. Cortical bone thickness (Ct.Th) was calculated in 0.1 mm increments for each anatomical quadrant and for the entire cross-section using image analysis software (Bioquant Osteo, Nashville, Tenn.). Thin sections from the midshaft of the right femur were ground to a thickness of 50 μm and mounted on glass slides. Images of calcein labels were captured at 100× magnification and periosteal and endosteal mineral apposition rates (Ps.MAR and Es.MAR, respectively) and mineralizing surfaces (Ps.MS/BS and Es.MS/MS) were quantified (Bioquant) for each femur.
as §3

Male Swiss-Webster mice [3] = assay: Cortical bone dynamic histomorphometry in the femur (calcein labels); format: in vivo, mouse; conditions: femoral midshaft, 2.5 nmol/kg s.c., 8 weeks, SD in parentheses
From the text: as §1, §2, §4, §3

procollagen-1 mRNA = conditions: Nasu et al., 1998; cited from earlier work
male mice = conditions: Sakai et al. 1999, cited from earlier work
rats = conditions: Tashjian et al. 2008; cited from earlier work

For human PTH 1-34 [hPTH 1-34], the “expression ratio of Bax/Bcl-2” value (MC-3T3 cells; 3 hours, n=4, bear vs human p=0.047) was “increases”, the “expression of type I collagen compared to the vehicle control” value (MC-3T3 cells; 6 hours) was “did not affect” and the “expression of osteocalcin compared to the vehicle control” value (MC-3T3 cells; 6 hours, n=2) was “substantially upregulated; also recorded: upregulate”. The BV/TV (Male Swiss-Webster mice [1]; 2.5 nmol/kg s.c. daily 5 days/week) was 1.35 %/kg, the “App. Mn. Dn” value (Male Swiss-Webster mice [1]; 2.5 nmol/kg s.c.) was 1783 mgHA/(cm^3*kg) and the “Mat. Mn. Dn.” value (Male Swiss-Webster mice [1]; 2.5 nmol/kg s.c.) was 31281 mgHA/(cm^3*kg). The “Tb. N” value (Male Swiss-Webster mice [1]; 2.5 nmol/kg s.c.) was 105.0 1/mm*kg, the “Tb. Sp” value (Male Swiss-Webster mice [1]; 2.5 nmol/kg s.c.) was 9.57 mm/kg and the “Tb. Th” value (Male Swiss-Webster mice [1]; 2.5 nmol/kg s.c.) was 1.05 mm/kg. The Ct.Ar (Male Swiss-Webster mice [2]) was 30.7 (3.0) mm^2/kg, the Ct.Th (Male Swiss-Webster mice [2]) was 2.22 (0.20)^b mm/kg and the Es.Ar (Male Swiss-Webster mice [2]) was 24.7 (3.7) mm^2/kg. The Ps.Ar (Male Swiss-Webster mice [2]) was 55.3 (5.2)^b,c mm^2/kg, the “Endosteal MAR” value (Male Swiss-Webster mice [3]) was 0.56 (0.18) and the “Endosteal MS/BS” value (Male Swiss-Webster mice [3]) was 39.3 (17.7). For the same substance, the “Periosteal MAR” value (Male Swiss-Webster mice [3]) was 0.53 (0.21), the “Periosteal MS/BS” value (Male Swiss-Webster mice [3]) was 24.0 (13.8) and the “production of procollagen-1 mRNA” value (procollagen-1 mRNA) was “down-regulates”. For the same substance, the “trabecular thickness (Tb.Th) or mineral apposition rates (MAR) in the proximal tibia” value (male mice; daily injections of 1 nmol/kg for 6 weeks) was “did not affect”, the “trabecular thickness (Tb.Th) and mineral apposition rates (MAR) in the proximal tibia” value (male mice; higher molar dosage (˜10 nmol/kg)) was “increased” and the “dose shown to be carcinogenic in rats” value (rats) was 5 µg/kg.
